How the values were obtained:
Assay type in all cases: cell-based, human
[1] = test system: MCF-7 mammospheres; assay: cells; conditions: for Mammosphere numbers (>100 μM), percentage of vehicle treated control: 5 days; for viability at 5 ppm: Homo sapiens, MCF7, read-out: XTT viability of dissociated mammospheres; for Mammosphere morphology: 2.5-5 ppm, after 48 hours
Procedure: (§1) Given the similar effects the other strigolactone analogs had on breast cancer cell line growth compared to GR-24, we anticipated that the strigolactone analogs would also have similar effects on MCF-7 primary mammosphere formation (FIG. 10): MCF-7 cells were seeded in MEBM media into low attachment, 96 well plates in duplicate at 3000 cells per well. The same day the indicated doses of strigolactone analogs were added. After 7 days representative images were taken. […] Like GR-24, the doses required to inhibit mammosphere formation are lower than that required to inhibit proliferation in monolayer cultures (5 fold lower; ST-362 and MEB-55, 3 fold lower; ST-357). To determine if the sensitivity to strigolactone analogs treatments was specific to mammosphere formation or whether it extended to the integrity and survival of mature mammospheres, MCF-7 mammospheres were grown in the absence of strigolactone analogs and after 7 days (or once mammospheres had reached a mean diameter of over […]), strigolactone analogs were added to the growth media (FIG. 10) at the indicated doses. MCF-7 cells were seeded in MEBM media into low attachment, 96 well plates in duplicate at 3000 cells per well and primary mammospheres left to grow for 7 days. At which time the indicated doses of strigolactone analogs were added to the media. FIG. 11A is a representative image of mammospheres treated with 5 ppm concentrations, showing dissociation after 2 days of exposure to strigolactone analogs. […] Following […] treatment, mammospheres were monitored visually after 24 and 48 hours. No changes were observed following 24 hours of strigolactone analogs treatment. […] At 5 ppm concentrations EG-5, EG-9C, ST-357, ST-362 and MEB-55 reduce mammosphere numbers from 86.7+6.8 (vehicle control) to 23+5, 38+6.2, 6+2, 8.3+3.5 and 9.3+1.5%, respectively. At 2.5 ppm concentrations, mammosphere numbers were reduced to 35+6.9 (EG-5), 52+12.3 (EG-9C), 22+8.5 (ST-357), 6+1.7 (ST-362) and 20.7+8.6 (MEB-55). […] XTT viability assays were also carried out on dissociated mammospheres. At concentrations of 5 ppm, EG-5, ST-362 and MEB-55 reduced viability to 3.7+0.5, 25.5+8.8 and 4.6+1.1% respectively.

[2] = test system: MCF-7 mammospheres; assay: Mammosphere formation; conditions: for Dose to block/inhibit mammosphere formation, fold lower than for monolayer growth: MCF-7
Procedure: Adherent cells were gently trypsinized, (0.05% trypsin/EDTA) washed twice in PBS and filtered through a […] cell sieve to obtain a single cell suspensions. Cells were diluted to a concentration of 10,000 cell/ml in serum-free phenol-red free MEBM (MEGM Bulletkit, Lonza) supplemented with 5 μg/ml bovine insulin, 20 ng/ml recombinant epidermal growth factor, 20 ng/ml basic fibroblast growth factor (Gibco), 1×B27 supplement, 0.5 μg/ml hydrocortisone (MEGM Bulletkit, Lonza). For MDA-MB-231 mammosphere cultures serum-free phenol red-free CnT-27 medium with growth additives (CellnTEC Advanced cell systems, Bern, Switzerland) was used as previously described. 0.1 ml was seeded per well of a Ultralow attachment 96 well plates. The following day the indicated doses of GR-24 (ppm) or vehicle alone (0.6% acetone f/c) were added. Media was replenished every 3-4 days. Self-renewal capacity of the mammospheres was determined by re-plating and producing further generations of mammospheres. Secondary mammospheres were cultivated by dissociation (trypsinization with gently vortexing) of 10-14 day old primary mammospheres. Single cell suspensions were obtained as described above.
as §1

[3] = test system: BJ fibroblast; assay: Cell cycle analysis (propidium iodide, flow cytometry); conditions: 48 hours
Procedure: (§2) Adherent cells were trypsinyzed, washed twice with PBS and filtered through a […] cell sieve. DNA content was assessed by flow cytometry. Cells were seeded at densities of 1.5×10^5 cells (MDA-MB-231, MDA-MB-436), or 4×10^5 cells (MCF-7 and MCF10A), or 2×10^5 cells (SW480, HT-29), or 5×10^5 cells (HCT116), per well in DMEM with 10% FBS in 6-well plate culture dishes. […] After 48 hours, cells were washed twice with PBS (pH 7.4), centrifuged at 360 g for 10 minutes at 4° C., and fixed in chilled ethanol (70%; v/v in PBS) with gentle vortex mixing. To determine their DNA contents, the cells were stained with 40 μg/ml propidium iodide (hereinafter PI) and analyzed using a FACSCalibur flow cytometer and CellQuest analysis software (Becton Dickinson, San Jose, Calif.). Where phosphoHistone-H3 staining was carried out, cells were incubated with polyclonal antibody against phosphoHistone H3 and then with secondary Goat anti-rabbit IgG-conjugated to FITC prior to PI staining.

[4] = test system: MDA-MB-231; assay: as above; conditions: 48 hours
Procedure: as §2

[5] = 5 ppm, vehicle control 86.7+6.8

SMILES	Mammosphere numbers (>100 μM), percentage of vehicle treated control ([1]; 2.5 ppm)	Mammosphere numbers (>100 μM), percentage of vehicle treated control [1, 5]	viability at 5 ppm [1] [%]	Mammosphere formation ([2]; 5 ppm and above)	Mammosphere morphology [1]	Mammosphere formation ([2]; 1 ppm, p<0.01)	Mammosphere growth ([2]; 2.5 ppm)	Dose to block/inhibit mammosphere formation, fold lower than for monolayer growth [2] [fold]	Cell Cycle Distribution G1 ([3]; 5 ppm) [%]	Cell Cycle Distribution G2 ([3]; 5 ppm) [%]	Cell Cycle Distribution S ([3]; 5 ppm) [%]	SubG1/Apoptosis ([3]; 5 ppm)	Cell Cycle Distribution G1 ([4]; MDA-MB-231, 5 ppm) [%]	Cell Cycle Distribution G2 ([4]; MDA-MB-231, 5 ppm) [%]	Cell Cycle Distribution S ([4]; MDA-MB-231, 5 ppm) [%]	SubG1/Apoptosis ([4]; MDA-MB-231, 5 ppm)	further results
CC1=CC(O/C=C2\Cc3c(n(C)c4ccccc34)C2=O)OC1=O (racemic) [EG-5, (±) (2E)-4-methyl-2-(4-methyl-5-oxo-2,5-dihydrofuran-2-yloxymethylene)-1,4-dihydro-2H-cyclopenta[b]indol-3-one]	35+6.9%	23+5%	3.7	completely block mammosphere formation													Cell Cycle Distribution G1 ([3]; 10 ppm): 82.29%; Cell Cycle Distribution G2 ([3]; 10 ppm): 10.50%; Cell Cycle Distribution S ([3]; 10 ppm): 4.480%; SubG1/Apoptosis ([3]; 10 ppm): 0.49; Cell Cycle Distribution G1 ([4]; MDA-MB-231, 10 ppm): 34.74%; Cell Cycle Distribution G2 ([4]; MDA-MB-231, 10 ppm): 35.70%; Cell Cycle Distribution S ([4]; MDA-MB-231, 10 ppm): 14.59%; SubG1/Apoptosis ([4]; MDA-MB-231, 10 ppm): 11.32
CC1=CC(O/C=C2\Cc3c(n(C)c4cc(-c5cccs5)ccc34)C2=O)OC1=O (racemic) [MEB-55, (±) 2E-4-methyl-2-(4-methyl-5-oxo-2,5-dihydrofuran-2-yloxymethylene)-6-thiophen-2-yl-1,4-dihydro-2H-cyclopenta[b]indol-3-one]	20.7 ± 8.6%	9.3+1.5%	4.6	completely block mammosphere formation	exhibited a looser morphology and appeared to be dissociating	significantly inhibit mammosphere formation	block mammosphere growth	5	78.96	11.54	5.930	0.57	49.61	28.33	14.51	3.88	
CC1=C[C@H](O/C=C2/C(=O)O[C@@H]3c4ccccc4C[C@H]23)OC1=O (relative stereo) [GR-24, (3aR*,8bS*,E)-3-(((R*)-4-methyl-5-oxo-2,5-dihydrofuran-2-yloxy)methylene)-3,3a,4,8b-tetrahydro-2H-indeno[1,2-b]furan-2-one]						severely attenuated		5.7									Mammosphere growth ([2]; 0.5 ppm, p<0.05): inhibited to a lesser degree; Increase in the sub-G1/apoptotic fraction compared to vehicle ([4]; 10 ppm): 4.6 fold
CC1=CC(O/C=C2/C(=O)c3c(c4cc(-c5cccs5)ccc4n3C)C2C)OC1=O (stereo not drawn) [ST-357, (2E)-1,4-dimethyl-2-((4-methyl-5-oxo-2,5-dihydrofuran-2-yloxy)methylene)-7-(thiophen-2-yl)-1,2-dihydrocyclopenta[b]indol-3(4H)-one]	22+8.5%	6+2%		completely block mammosphere formation	exhibited a looser morphology and appeared to be dissociating	significantly inhibit mammosphere formation	significant reduction in mammosphere growth	3									
CC1=CC(O/C=C2/C(=O)c3c(c4cc(-c5scc6c5OCCO6)ccc4n3C)C2C)OC1=O (stereo not drawn) [ST-362, (2E)-2-[(2,5-dihydro-4-methyl-5-oxofuran-2-yloxy)methylene]-1,2-dihydro-7-(2,3-dihydrothieno[3,4-b][1,4]dioxin-7-yl)-1,4-dimethyl-cyclopenta[b]indole-3-(4H)-one]	6+1.7%	8.3+3.5%		completely block mammosphere formation	exhibited a looser morphology and appeared to be dissociating	significantly inhibit mammosphere formation	block mammosphere growth	5	83.42	12.86	1.580	0.72	42.17	37.93	11.90	4.17	
